According to patent US8563714B2, “Bridged spiro [2.4] heptane derivatives as ALX receptor and/or FPRL2 agonists” (Actelion Pharmaceuticals Ltd., priority 2009, dated 2013):
pEC50: −log10 of the molar value.

Tests used:
human ALX receptor = target: T1, human ALX receptor (Homo sapiens, UniProt P25090); assay: Intracellular calcium measurements (FLIPR), agonistic activity in HEK293-hALXR-Gα16 cells; type: cell-based; details: Fluo-4 calcium FLIPR, normalized to WKYMVm 10 nM
T1 construct: expressed in transfected cells; host or cells: HEK293 (HEK293-hALXR-Gα16)
T1 sequence (P25090 1-351): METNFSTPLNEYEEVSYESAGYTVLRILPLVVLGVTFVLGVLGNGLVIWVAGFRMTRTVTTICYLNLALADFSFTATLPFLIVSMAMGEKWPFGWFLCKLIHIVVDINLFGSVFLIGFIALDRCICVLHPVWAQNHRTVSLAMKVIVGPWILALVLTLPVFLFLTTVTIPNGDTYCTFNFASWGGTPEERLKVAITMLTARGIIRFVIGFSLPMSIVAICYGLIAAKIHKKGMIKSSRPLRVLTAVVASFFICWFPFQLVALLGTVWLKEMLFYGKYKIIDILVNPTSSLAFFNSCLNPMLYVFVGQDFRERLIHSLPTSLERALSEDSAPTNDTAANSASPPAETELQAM
Procedure, shortened: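 HEK293 cells expressing hALXR and Gα16 were loaded with 1 μM Fluo-4 AM and 20 mM HEPES for 60 min at 37°C, then exposed to serially diluted compound. FLIPR fluorescence was read at ex 488/em 540 nm. Baseline-subtracted peak responses were normalized to 10 nM WKYMVm.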

human FPRL2 = target: T2, human FPRL2 (Homo sapiens, UniProt P25089); assay: Intracellular calcium measurements (FLIPR), agonistic activity in HEK293-hFPRL2-Gα16 cells; type: cell-based; details: Fluo-4 calcium FLIPR, normalized to GLY14-Humanin 100 nM
T2 construct: expressed in transfected cells; host or cells: HEK293 (HEK293-hFPRL2-Gα16)
T2 sequence (P25089 1-353): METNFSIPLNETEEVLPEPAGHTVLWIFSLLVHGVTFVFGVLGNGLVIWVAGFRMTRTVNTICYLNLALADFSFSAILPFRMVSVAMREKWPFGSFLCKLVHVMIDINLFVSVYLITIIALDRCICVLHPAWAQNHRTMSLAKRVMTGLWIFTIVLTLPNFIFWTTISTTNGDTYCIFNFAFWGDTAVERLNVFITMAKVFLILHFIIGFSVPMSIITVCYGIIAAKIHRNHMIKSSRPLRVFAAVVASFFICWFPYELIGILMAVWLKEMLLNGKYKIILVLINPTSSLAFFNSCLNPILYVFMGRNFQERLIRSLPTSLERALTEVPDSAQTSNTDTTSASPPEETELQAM
Procedure, shortened: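 Peak values after baseline subtraction are expressed relative to 100 nM Gly14-Humanin; compounds diluted in assay buffer from 10 mM DMSO stocks.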

SMILES | pEC50 (human ALX receptor) | pEC50 (human FPRL2)
COCC(Cc1ccccc1)NC(=O)C1C(C(=O)Nc2ccc(Br)cc2)C2C=CC1C21CC1 [Example 100, (5R*)—N^5-(4-Bromophenyl)-(6R*)—N^6-[(1S)-2-methoxy-1-benzyl-ethyl]-(4S*,7R*)-[4,7-ethenylene-spiro[2.4]heptane]-5,6-dicarboxamide] | 6.13 | 5.21
Cc1nc(CCNC(=O)C2C(C(=O)Nc3ccc(Br)cc3)C3CCC2C32CC2)[nH]c1C (stereo not drawn) [Example 112, (5R*)—N^5-(4-Bromophenyl)-(6R*)—N^6-(2-(4,5-dimethyl-1H-imidazol-2-yl)-ethyl)-(4S*,7R*)-[4,7-ethylene-spiro[2.4]heptane]-5,6-dicarboxamide] | 8.08 | 7.24
O=C(NCCCCN1CCCC1)[C@H]1[C@H](C(=O)Nc2ccc(Br)cc2)[C@@H]2CC[C@H]1C21CC1 [Example 113, (5R)—N^5-(4-Bromophenyl)-(6R)—N^6-(4-pyrrolidin-1-yl-butyl)-(4S,7R)-[4,7-ethylene-spiro[2.4]heptane]-5,6-dicarboxamide] | 9.46 | 7.82
O=C(NCCCCN1CCCC1)C1C(C(=O)NCCCn2ccnc2)C2C=CC1C21CC1 (stereo not drawn) [Example 141, (5R*)—N^5-(3-(1H-Imidazol-1-yl)-propyl)-(6R*)—N^6-(4-pyrrolidin-1-yl-butyl)-(4S*,7R*)-[4,7-ethenylene-spiro[2.4]heptane]-5,6-dicarboxamide] | 6.08 | 5.80
Cc1cc(C)n(CCC(=O)NCC2C(C(=O)Nc3ccc(Br)cc3)C3C=CC2C32CC2)n1 (stereo not drawn) [Example 159, (5R*)—N^5-(4-Bromo-phenyl)-(6R*)-6-[(3-(3,5-dimethyl-pyrazol-1-yl)-propionylamino)-methyl]-(4S*,7R*)-[4,7-ethenylene-spiro[2.4]heptane]-5-carboxamide] | 7.89 | 5.63
O=C(NCC1C(C(=O)Nc2ccc(Br)cc2)C2C=CC1C21CC1)c1cnoc1-c1ccccc1 (stereo not drawn) [Example 160, (5R*)—N^5-(4-Bromo-phenyl)-(6R*)-6-{[(5-phenyl-isoxazole-4-carbonyl)-amino]-methyl}-(4S*,7R*)-[4,7-ethenylene-spiro[2.4]heptane]-5-carboxamide] | 7.43 | < 4.60
CC(=O)c1ccc(CNC(=O)[C@H]2[C@H](C(=O)NCCCCN3CCCC3)[C@H]3C=C[C@@H]2C32CC2)o1 [Example 195, (5R)—N^5-(5-Acetyl-furan-2-yl-methyl)-(6R)—N^6-(4-pyrrolidin-1-yl-butyl)-(4S,7R)-[4,7-ethenylene-spiro[2.4]heptane]-5,6-dicarboxamide] | 7.55 | 6.19
CC(=O)c1ccc(CNC(=O)C2C(C(=O)NCCCCN3CCCC3)C3CCC2C32CC2)o1 [Example 196, (5R)—N^5-(5-Acetyl-furan-2-yl-methyl)-(6R)—N^6-(4-pyrrolidin-1-yl-butyl)-(4S,7R)-[4,7-ethylene-spiro[2.4]heptane]-5,6-dicarboxamide] | 7.68 | 5.97
CCN1CCN(CCCCNC(=O)[C@H]2[C@H](C(=O)Nc3ccc(Br)cc3)[C@@H]3C=C[C@H]2C32CC2)CC1 [Example 208, (5R)—N^5-(4-Bromophenyl)-(6R)—N^6-(4-(4-ethyl-piperazin-1-yl)-butyl)-(4S,7R)-[4,7-ethenylene-spiro[2.4]heptane]-5,6-dicarboxamide] | 8.64 | 7.82
O=C(NCCCCN1CCCCC1)[C@H]1[C@H](C(=O)Nc2ccc(Br)cc2)[C@@H]2C=C[C@H]1C21CC1 [Example 209, (5R)—N^5-(4-Bromophenyl)-(6R)—N^6-(4-piperidino-butyl)-(4S,7R)-[4,7-ethenylene-spiro[2.4]heptane]-5,6-dicarboxamide] | 10.15 | 7.24
O=C(NCCCCN1CCC1)[C@H]1[C@H](C(=O)Nc2ccc(Br)cc2)[C@@H]2C=C[C@H]1C21CC1 [Example 210, (5R)—N^5-(4-Bromophenyl)-(6R)—N^6-(4-(azetidin-1-yl)butyl)-(4S,7R)-[4,7-ethenylene-spiro[2.4]heptane]-5,6-dicarboxamide] | 9.40 | 6.70
O=C(NCCCCN1CCOCC1)[C@H]1[C@H](C(=O)Nc2ccc(Br)cc2)[C@@H]2C=C[C@H]1C21CC1 [Example 211, (5R)—N^5-(4-Bromophenyl)-(6R)—N^6-(4-morpholino-butyl)-(4S,7R)-[4,7-ethenylene-spiro[2.4]heptane]-5,6-dicarboxamide] | 9.28 | 6.37
CN1CCCN(CCCCNC(=O)[C@H]2[C@H](C(=O)Nc3ccc(Br)cc3)[C@@H]3C=C[C@H]2C32CC2)CC1 [Example 212, (5R)—N^5-(4-Bromophenyl)-(6R)—N^6-(4-(4-methyl-1,4-diazepan-1-yl)butyl)-(4S,7R)-[4,7-ethenylene-spiro[2.4]heptane]-5,6-dicarboxamide] | 9.05 | 7.92
CN1CCN(CCCCNC(=O)[C@H]2[C@H](C(=O)Nc3ccc(Br)cc3)[C@@H]3C=C[C@H]2C32CC2)CC1 [Example 213, (5R)—N^5-(4-Bromophenyl)-(6R)—N^6-(4-(4-methyl-piperazin-1-yl)butyl)-(4S,7R)-[4,7-ethenylene-spiro[2.4]heptane]-5,6-dicarboxamide] | 8.39 | 7.80
O=C(NCCCC(=O)N1CCCC1)[C@H]1[C@H](C(=O)Nc2ccc(Br)cc2)[C@@H]2C=C[C@H]1C21CC1 [Example 214, (5R)—N^5-(4-Bromophenyl)-(6R)—N^6-(4-pyrrolidino-4-oxobutyl)-(4S,7R)-[4,7-ethenylene-spiro[2.4]heptane]-5,6-dicarboxamide] | 8.21 | 6.47
O=C(NCCOCCN1CCCC1)[C@H]1[C@H](C(=O)Nc2ccc(Br)cc2)[C@@H]2C=C[C@H]1C21CC1 [Example 215, (5R)—N^5-(4-Bromophenyl)-(6R)—N^6-(2-(2-(pyrrolidin-1-yl)ethoxy)ethyl)-(4S,7R)-[4,7-ethenylene-spiro[2.4]heptane]-5,6-dicarboxamide] | 9.14 | 7.02
O=C(N[C@@H]1CC[C@@H](CN2CCCC2)OC1)[C@H]1[C@H](C(=O)Nc2ccc(Br)cc2)[C@@H]2C=C[C@H]1C21CC1 [Example 216, (5R)—N^5-(4-Bromophenyl)-(6R)—N^6-((3R,6S)-6-(pyrrolidin-1-ylmethyl)tetrahydro-2H-pyran-3-yl)-(4S,7R)-[4,7-ethenylene-spiro[2.4]heptane]-5,6-dicarboxamide] | 8.57 | 6.53
CC(=O)N1CCN(CCCCNC(=O)[C@H]2[C@H](C(=O)Nc3ccc(Br)cc3)[C@@H]3C=C[C@H]2C32CC2)CC1 [Example 217, (5R)—N^5-(4-Bromophenyl)-(6R)—N^6-(4-(4-acetyl-piperazin-1-yl)butyl)-(4S,7R)-[4,7-ethenylene-spiro[2.4]heptane]-5,6-dicarboxamide] | 7.42 | 7.21
O=C(NCCCCN1CC[C@@H](F)C1)[C@H]1[C@H](C(=O)Nc2ccc(Br)cc2)[C@@H]2C=C[C@H]1C21CC1 [Example 219, (5R)—N^5-(4-Bromophenyl)-(6R)—N^6-(4((3R)-fluoropyrrolidino)butyl)-(4S,7R)-[4,7-ethenylene-spiro[2.4]heptane]-5,6-dicarboxamide] | 9.52 | 6.76
O=C(NCCCCN1CC[C@H](F)C1)[C@H]1[C@H](C(=O)Nc2ccc(Br)cc2)[C@@H]2C=C[C@H]1C21CC1 [Example 220, (5R)—N^5-(4-Bromophenyl)-(6R)—N^6-(4-((3S)-fluoropyrrolidino)butyl)-(4S,7R)-[4,7-ethenylene-spiro[2.4]heptane]-5,6-dicarboxamide] | 9.46 | 6.63
O=C(NCCCCCN1CCCC1)[C@H]1[C@H](C(=O)Nc2ccc(Br)cc2)[C@@H]2C=C[C@H]1C21CC1 [Example 221, (5R)—N^5-(4-Bromophenyl)-(6R)—N^6-(5-pyrrolidino-pentyl)-(4S,7R)-[4,7-ethenylene-spiro[2.4]heptane]-5,6-dicarboxamide] | 9.18 | 7.39
O=C(NCCCCN1CCCC1)[C@H]1[C@H](C(=O)Nc2ncc(Br)s2)[C@@H]2C=C[C@H]1C21CC1 [Example 225, (5R)—N^5-(5-Bromo-thiazol-2-yl)-(6R)—N^6-(4-pyrrolidin-1-yl-butyl)-(4S,7R)-[4,7-ethenylene-spiro[2.4]heptane]-5,6-dicarboxamide] | 8.19 | 6.84
O=C(NCCCCN1CCCC1)[C@H]1[C@H](C(=O)Nc2ncc(Br)s2)[C@@H]2CC[C@H]1C21CC1 [Example 238, (5R)—N^5-(5-Bromo-thiazol-2-yl)-(6R)—N^6-(4-pyrrolidin-1-yl-butyl)-(4S,7R)-[4,7-ethylene-spiro[2.4]heptane]-5,6-dicarboxamide] | 7.66 | 6.85
